Data on 25 molecules can be found in ChEMBL document CHEMBL5537169, “Structure-Activity Relationships and Discovery of (S)-6-Isopropyl-2-methoxy-3-(3-methoxypropoxy)-10-oxo-5,10-dihydro-6H-pyrido[1,2-h][1,7]naphthyridine-9-carboxylic Acid (AB-452), a Novel Orally Available HBV RNA Destabilizer” (J Med Chem, 2024).

In series [1] the test system is HepG2 2.2.15. The series is described as follows: Cytotoxicity against human HepG2.2.15 cells by Cell-titer Glo luminescent assay. It is filed as functional.
The subject of series [2] is Hepatitis B virus. Briefly: Antiviral activity against HBV infected in human HepG2.2.15 cells assessed as inhibition of HBsAg level incubated for 6 days by microplate-based chemiluminescence immunoassay. The format is functional, organism-based. Particulars: HepG2 2.2.15, 144 h.
Series [3] is described as follows: Clearance in CD-1 mouse liver microsomes at 0.3 uM pre-incubated for 10 mins followed by NADPH addition incubated for 60 mins by LC-MS/MS analysis. It is filed as ADME, Microsome. Particulars: time 70 min, read-out: CLH. In general terms: Liver microsomes are a subcellular fraction often used to study metabolism.

In general, CC50 refers to the concentration giving 50% cytotoxicity. Low readings indicate greater toxicity to the cells, high ones lower toxicity to the cells. What is called EC50 is the concentration at which the effect is half-maximal.

Molecules are shown by their SMILES.

For `COCCCOc1cc2c([nH]c1=O)-c1cc(=O)c(C(=O)O)cn1[C@H](C(C)C)C2`, the CC50 in series [1] was above 50 µM. In addition, the 50% effective concentration (EC50) in series [2] turned out to be 0.45 µM.

Turning to `CC(C)[C@@H]1COc2cc(OCC3CC3)c(Cl)cc2-c2cc(=O)c(C(=O)O)cn21`, the CC50 in series [1] was determined as 37 µM. In addition, in series [3], the microsomal CLint at 0.3 µM turned out to be 1 µL/min/mg. Moreover, the concentration for a half-maximal effect (EC50) in series [2] is 0.032 µM.

Turning to `CC(C)C1Cc2sccc2-c2cc(=O)c(C(=O)O)cn21` (configuration not stated), the CC50 in series [1] is above 50 µM. Moreover, in series [2], the EC50 came out at 2.4 µM.

In series [1], `C=Cc1cc2c(cc1OCCCOC)OC[C@@H](C(C)C)n1cc(C(=O)O)c(=O)cc1-2` came in with a CC50 of 33 µM. Further, the concentration for a half-maximal effect (EC50) in series [2] worked out at 0.004 µM.

In series [1], `COc1cc2c(cc1Cl)-c1cc(=O)c(C(=O)O)cn1C(C(C)C)CO2` (configuration not stated) showed a half-maximal cytotoxic concentration (CC50) of 46 µM. The 50% effective concentration (EC50) in series [2] is 0.076 µM.

On to `COCCOc1cc2c(cc1Cl)-c1cc(=O)c(C(=O)O)cn1[C@H](C(C)C)CO2`, for which the CC50 in series [1] was above 50 µM. Besides, the EC50 in series [2] worked out at 0.053 µM.

In the case of `COc1cc2c(nc1OC)-c1cc(=O)c(C(=O)O)cn1[C@H](C(C)C)C2`, the CC50 in series [1] is above 50 µM. For the same molecule, in series [2], the EC50 amounted to 0.007 µM.

For `COc1cc2c(cn1)-c1cc(=O)c(C(=O)O)cn1C(C(C)C)C2` (configuration not stated), the CC50 in series [1] was above 50 µM. Also, the EC50 in series [2] was determined as 0.96 µM.

In series [1], `CCC1(C(C)C)Cc2cc(OCCCOC)c(OC)nc2-c2cc(=O)c(C(=O)O)cn21` (configuration not stated) gave a CC50 above 50 µM. Besides, the EC50 in series [2] came to 0.006 µM.

With `COCc1nc2c(s1)CC(C(C)C)n1cc(C(=O)O)c(=O)cc1-2` (configuration not stated), the half-maximal cytotoxic concentration (CC50) in series [1] was above 50 µM. In series [2], the concentration giving a half-maximal response (EC50) came to 3 µM.

For the molecule `CC(C)C1Cc2sc(Cl)cc2-c2cc(=O)c(C(=O)O)cn21` (configuration not stated), the CC50 in series [1] is above 50 µM. Also, in series [2], the EC50 was determined as 21 µM.

Consider `CC(C)[C@@H]1COc2cc(OCC(C)(C)CO)c(Cl)cc2-c2cc(=O)c(C(=O)O)cn21`, for which the CC50 in series [1] was above 50 µM. Also, the microsomal CLint at 0.3 µM in series [3] was 17 µL/min/mg. The concentration giving a half-maximal response (EC50) in series [2] was found to be 0.012 µM.

Molecule `CC(C)[C@@H]1COc2cc(OCCCCO)c(Cl)cc2-c2cc(=O)c(C(=O)O)cn21` came in with a 50% cytotoxic concentration (CC50) in series [1] above 50 µM. Besides, the microsomal CLint at 0.3 µM in series [3] is 1 µL/min/mg. The EC50 in series [2] amounted to 0.014 µM.

Consider `COc1cc2c(nc1OC)-c1cc(=O)c(C(=O)O)cn1[C@@H](C(C)C)C2`, for which the cytotoxic concentration (CC50) in series [1] is above 50 µM. Besides, the EC50 in series [2] was 0.3 µM.

Regarding `COc1cccc(Cn2cc(C(C)C)n3cc(C(=O)O)c(=O)cc3c2=O)c1`, in series [2], the concentration for a half-maximal effect (EC50) came to 5 µM.

In series [1], `COc1cc2c(cc1Cl)-c1cc(=O)c(C(=O)O)cn1[C@@H](C(C)C)CO2` registered a half-maximal cytotoxic concentration (CC50) above 50 µM. Also, in series [2], the EC50 amounted to 3.5 µM.

`COCCCOc1cc2c(nc1OC)-c1cc(=O)c(C(=O)O)cn1[C@@H](C(C)C)C2` gave a half-maximal cytotoxic concentration (CC50) in series [1] above 50 µM. Also, the EC50 in series [2] amounted to 0.95 µM.

The molecule `COc1cc2c(cc1Cl)-c1cc(=O)c(C(=O)O)cn1[C@H](C(C)C)CO2` gave a CC50 in series [1] above 50 µM. Also, the microsomal CLint at 0.3 µM in series [3] was 1 µL/min/mg. In addition, the EC50 in series [2] stood at 0.038 µM.

Take `CC(C)[C@@H]1COc2cc(OCCCN3CCOCC3)c(Cl)cc2-c2cc(=O)c(C(=O)O)cn21`: in series [1], the CC50 is above 50 µM. Also, the microsomal CLint at 0.3 µM in series [3] amounted to 1 µL/min/mg. For the same molecule, in series [2], the EC50 worked out at 0.14 µM.

As to `COc1ccc(-c2cc(=O)c(C(=O)O)cn2CC(C)(C)C)cc1OC`, the EC50 in series [2] amounted to 10 µM.

In the case of `COc1nc2c(s1)CC(C(C)C)n1cc(C(=O)O)c(=O)cc1-2` (configuration not stated), in series [1], the 50% cytotoxic concentration (CC50) is above 50 µM. For the same molecule, in series [2], the concentration for a half-maximal effect (EC50) amounted to 3.8 µM.

Molecule `COCCOc1cc2c(cc1Cl)-c1cc(=O)c(C(=O)O)cn1[C@@H](C(C)C)CO2` showed a cytotoxic concentration (CC50) in series [1] above 50 µM. Moreover, the EC50 in series [2] worked out at 0.78 µM.

In the case of `COc1nc2c(cc1OCCCO)C[C@@H](C(C)C)n1cc(C(=O)O)c(=O)cc1-2`, the CC50 in series [1] was above 50 µM. In series [2], the concentration for a half-maximal effect (EC50) came to 0.007 µM.

The molecule `COc1cc2c(nc1OC)-c1cc(=O)c(C(=O)O)cn1C(C(C)C)C2` (configuration not stated) had a cytotoxic concentration (CC50) in series [1] above 50 µM. The EC50 in series [2] was determined as 0.014 µM.

Regarding `COc1cc2c(cc1OC)-c1cc(=O)c(C(=O)O)cn1[C@H](C(C)C)C2`, the EC50 in series [2] is 0.0073 µM.
